Data reported in ChEMBL document CHEMBL5532684, “Total Synthesis and Antibacterial Activity of Marine Tris-indole Alkaloid Tulongicin A” (2024).
Values after ≈ are worked out from the molar mass of the structure shown.

What was measured:
Format in all cases: functional
Staphylococcus aureus [1] = assay: Bactericidal activity against methicillin resistant Staphylococcus aureus clinical isolate 2 incubated overnight by CLSI protocol based assay; conditions: read-out: MBC>99.9
Staphylococcus aureus [2] = assay: Antibacterial activity against methicillin susceptible Staphylococcus aureus clinical isolate 3 assessed as inhibition of bacterial growth incubated overnight by CLSI protocol based assay; conditions: read-out: MIC100
Staphylococcus aureus [3] = assay: Antibacterial activity against methicillin susceptible Staphylococcus aureus clinical isolate 4 assessed as inhibition of bacterial growth incubated overnight by CLSI protocol based assay; conditions: read-out: MIC100
Staphylococcus aureus [4] = assay: Bactericidal activity against methicillin resistant Staphylococcus aureus clinical isolate 1 incubated overnight by CLSI protocol based assay; conditions: read-out: MBC>99.9
Pseudomonas aeruginosa [5] = assay: Antibacterial activity against Pseudomonas aeruginosa ATCC 27853 assessed as inhibition of bacterial growth incubated overnight by CLSI protocol based assay; conditions: read-out: MIC100
Staphylococcus aureus [6] = assay: Antibacterial activity against methicillin resistant Staphylococcus aureus clinical isolate 3 assessed as inhibition of bacterial growth incubated overnight by CLSI protocol based assay; conditions: read-out: MIC100
Staphylococcus aureus [7] = assay: Bactericidal activity against methicillin susceptible Staphylococcus aureus clinical isolate 3 incubated overnight by CLSI protocol based assay; conditions: read-out: MBC>99.9
Staphylococcus aureus [8] = assay: Antibacterial activity against methicillin susceptible Staphylococcus aureus clinical isolate 2 assessed as inhibition of bacterial growth incubated overnight by CLSI protocol based assay; conditions: read-out: MIC100
Staphylococcus aureus [9] = assay: Bactericidal activity against methicillin susceptible Staphylococcus aureus clinical isolate 4 incubated overnight by CLSI protocol based assay; conditions: read-out: MBC>99.9
Escherichia coli [10] = assay: Antibacterial activity against Escherichia coli ATCC 25922 assessed as inhibition of bacterial growth incubated overnight by CLSI protocol based assay; conditions: read-out: MIC100
Staphylococcus aureus [11] = assay: Antibacterial activity against methicillin resistant Staphylococcus aureus clinical isolate 1 assessed as inhibition of bacterial growth incubated overnight by CLSI protocol based assay; conditions: read-out: MIC100
Staphylococcus aureus [12] = assay: Antibacterial activity against Staphylococcus aureus ATCC 29213 assessed as inhibition of bacterial growth incubated overnight by CLSI protocol based assay; conditions: read-out: MIC100
Staphylococcus aureus [13] = assay: Antibacterial activity against methicillin resistant Staphylococcus aureus clinical isolate 4 assessed as inhibition of bacterial growth incubated overnight by CLSI protocol based assay; conditions: read-out: MIC100
Staphylococcus aureus [14] = assay: Bactericidal activity against methicillin resistant Staphylococcus aureus clinical isolate 5 incubated overnight by CLSI protocol based assay; conditions: read-out: MBC>99.9
Escherichia coli [15] = assay: Bactericidal activity against Escherichia coli ATCC 25922 incubated overnight by CLSI protocol based assay; conditions: read-out: MBC>99.9
Staphylococcus aureus [16] = assay: Bactericidal activity against methicillin resistant Staphylococcus aureus clinical isolate 4 incubated overnight by CLSI protocol based assay; conditions: read-out: MBC>99.9
Staphylococcus aureus [17] = assay: Bactericidal activity against methicillin resistant Staphylococcus aureus clinical isolate 3 incubated overnight by CLSI protocol based assay; conditions: read-out: MBC>99.9
Staphylococcus aureus [18] = assay: Bactericidal activity against methicillin susceptible Staphylococcus aureus clinical isolate 2 incubated overnight by CLSI protocol based assay; conditions: read-out: MBC>99.9
Staphylococcus aureus [19] = assay: Bactericidal activity against methicillin susceptible Staphylococcus aureus clinical isolate 5 incubated overnight by CLSI protocol based assay; conditions: read-out: MBC>99.9
Staphylococcus aureus [20] = assay: Bactericidal activity against Staphylococcus aureus ATCC 29213 incubated overnight by CLSI protocol based assay; conditions: read-out: MBC>99.9
Pseudomonas aeruginosa [21] = assay: Bactericidal activity against Pseudomonas aeruginosa ATCC 27853 incubated overnight by CLSI protocol based assay; conditions: read-out: MBC>99.9
Staphylococcus aureus [22] = assay: Antibacterial activity against Staphylococcus aureus assessed as inhibition of bacterial growth
Staphylococcus aureus [23] = assay: Antibacterial activity against methicillin susceptible Staphylococcus aureus clinical isolate 5 assessed as inhibition of bacterial growth incubated overnight by CLSI protocol based assay; conditions: read-out: MIC100
Staphylococcus aureus [24] = assay: Antibacterial activity against methicillin resistant Staphylococcus aureus clinical isolate 5 assessed as inhibition of bacterial growth incubated overnight by CLSI protocol based assay; conditions: read-out: MIC100
Staphylococcus aureus [25] = assay: Bactericidal activity against methicillin susceptible Staphylococcus aureus clinical isolate 1 incubated overnight by CLSI protocol based assay; conditions: read-out: MBC>99.9
Staphylococcus aureus [26] = assay: Antibacterial activity against methicillin resistant Staphylococcus aureus clinical isolate 2 assessed as inhibition of bacterial growth incubated overnight by CLSI protocol based assay; conditions: read-out: MIC100
Staphylococcus aureus [27] = assay: Antibacterial activity against methicillin susceptible Staphylococcus aureus clinical isolate 1 assessed as inhibition of bacterial growth incubated overnight by CLSI protocol based assay; conditions: read-out: MIC100

`Brc1ccc2c(C(C3=NC[C@H](c4c[nH]c5cc(Br)ccc45)N3)c3c[nH]c4cc(Br)ccc34)c[nH]c2c1` was tested. Which MBC (Staphylococcus aureus [1]) did it give?
The MBC was 16 µg/mL (≈ 24 µM).

What about the MIC (Staphylococcus aureus [2]) of the same compound?
The MIC was 2 µg/mL (≈ 3 µM).

And the MIC (Staphylococcus aureus [3])?
The MIC was 2 µg/mL (≈ 3 µM).

What about the MBC (Staphylococcus aureus [4]) of the same compound?
Its MBC is 128 µg/mL (≈ 192 µM).

And the MIC (Pseudomonas aeruginosa [5])?
Its MIC is greater than 128 µg/mL.

What about the MIC (Staphylococcus aureus [6]) of the same compound?
Its MIC is 2 µg/mL (≈ 3 µM).

And the MBC (Staphylococcus aureus [7])?
Its MBC is 16 µg/mL (≈ 24 µM).

What about the MIC (Staphylococcus aureus [8]) of the same compound?
Its MIC is 2 µg/mL (≈ 3 µM).

What about the MBC (Staphylococcus aureus [9]) of the same compound?
Its MBC is 128 µg/mL (≈ 192 µM).

What about the MIC (Escherichia coli [10]) of the same compound?
Its MIC is 16 µg/mL (≈ 24 µM).

What about the MIC (Staphylococcus aureus [11]) of the same compound?
The MIC was 2 µg/mL (≈ 3 µM).

What about the MIC (Staphylococcus aureus [12]) of the same compound?
The MIC was 2 µg/mL (≈ 3 µM).

What about the MIC (Staphylococcus aureus [13]) of the same compound?
The MIC was 2 µg/mL (≈ 3 µM).

What about the MBC (Staphylococcus aureus [14]) of the same compound?
The MBC was 2 µg/mL (≈ 3 µM).

And the MBC (Escherichia coli [15])?
The MBC was 32 µg/mL (≈ 48 µM).

And the MBC (Staphylococcus aureus [16])?
The MBC was 16 µg/mL (≈ 24 µM).

What about the MBC (Staphylococcus aureus [17]) of the same compound?
The MBC was 2 µg/mL (≈ 3 µM).

And the MBC (Staphylococcus aureus [18])?
The MBC was 2 µg/mL (≈ 3 µM).

And the MBC (Staphylococcus aureus [19])?
Its MBC is 64 µg/mL (≈ 96.1 µM).

And the MBC (Staphylococcus aureus [20])?
The MBC was 4 µg/mL (≈ 6 µM).

And the MBC (Pseudomonas aeruginosa [21])?
The MBC was greater than 128 µg/mL.

What about the MIC (Staphylococcus aureus [22]) of the same compound?
Its MIC is 1 µg/mL (≈ 1.5 µM).

What about the MIC (Staphylococcus aureus [23]) of the same compound?
Its MIC is 2 µg/mL (≈ 3 µM).

What about the MIC (Staphylococcus aureus [24]) of the same compound?
The MIC was 1 µg/mL (≈ 1.5 µM).

And the MBC (Staphylococcus aureus [25])?
The MBC was 16 µg/mL (≈ 24 µM).

What about the MIC (Staphylococcus aureus [26]) of the same compound?
Its MIC is 1 µg/mL (≈ 1.5 µM).

And the MIC (Staphylococcus aureus [27])?
The MIC was 1 µg/mL (≈ 1.5 µM).

How did the MBC (Staphylococcus aureus [1]) turn out when `O=C(C1=NC[C@H](c2c[nH]c3cc(Br)ccc23)N1)c1c[nH]c2cc(Br)ccc12` (racemic) was run?
Its MBC is 16 µg/mL (≈ 32.9 µM).

And the MIC (Staphylococcus aureus [2])?
The MIC was 2 µg/mL (≈ 4.11 µM).

And the MIC (Staphylococcus aureus [3])?
Its MIC is 2 µg/mL (≈ 4.11 µM).

What about the MBC (Staphylococcus aureus [4]) of the same compound?
Its MBC is greater than 128 µg/mL.

And the MIC (Pseudomonas aeruginosa [5])?
The MIC was greater than 128 µg/mL.

What about the MIC (Staphylococcus aureus [6]) of the same compound?
The MIC was 2 µg/mL (≈ 4.11 µM).

And the MBC (Staphylococcus aureus [7])?
The MBC was greater than 128 µg/mL.

What about the MIC (Staphylococcus aureus [8]) of the same compound?
The MIC was 2 µg/mL (≈ 4.11 µM).

What about the MBC (Staphylococcus aureus [9]) of the same compound?
Its MBC is greater than 128 µg/mL.

What about the MIC (Escherichia coli [10]) of the same compound?
The MIC was greater than 128 µg/mL.

What about the MIC (Staphylococcus aureus [11]) of the same compound?
Its MIC is 2 µg/mL (≈ 4.11 µM).

And the MIC (Staphylococcus aureus [12])?
The MIC was 2 µg/mL (≈ 4.11 µM).

What about the MIC (Staphylococcus aureus [13]) of the same compound?
The MIC was 2 µg/mL (≈ 4.11 µM).

And the MBC (Staphylococcus aureus [14])?
The MBC was 64 µg/mL (≈ 132 µM).

What about the MBC (Escherichia coli [15]) of the same compound?
Its MBC is greater than 128 µg/mL.

And the MBC (Staphylococcus aureus [17])?
Its MBC is 4 µg/mL (≈ 8.23 µM).

What about the MBC (Staphylococcus aureus [18]) of the same compound?
The MBC was greater than 128 µg/mL.

And the MBC (Staphylococcus aureus [19])?
The MBC was 128 µg/mL (≈ 263 µM).

And the MBC (Staphylococcus aureus [20])?
Its MBC is 8 µg/mL (≈ 16.5 µM).

What about the MBC (Pseudomonas aeruginosa [21]) of the same compound?
Its MBC is greater than 128 µg/mL.

And the MIC (Staphylococcus aureus [23])?
Its MIC is 2 µg/mL (≈ 4.11 µM).

What about the MIC (Staphylococcus aureus [24]) of the same compound?
Its MIC is 2 µg/mL (≈ 4.11 µM).

And the MBC (Staphylococcus aureus [25])?
Its MBC is 32 µg/mL (≈ 65.8 µM).

What about the MIC (Staphylococcus aureus [26]) of the same compound?
The MIC was 2 µg/mL (≈ 4.11 µM).

What about the MIC (Staphylococcus aureus [27]) of the same compound?
The MIC was 2 µg/mL (≈ 4.11 µM).
